Measurements reported in patent US9034303B2, “Neuroprotective and neuro-restorative iron chelators and monoamine oxidase inhibitors and uses thereof” (priority 2010, dated 2015).
Entries after “also recorded” stand apart in the source; their conditions may differ. Read-outs that look alike come from different tables or passages of the source. Marks after values point to notes of the source that are not given here. One block for each molecule: values may come before it.

Experiments:
[1] = Stability in aqueous solution (PBS or saline) followed by HPLC; assay type: physicochemical; settings: for Stability in aqueous solution (in words): PBS and/or saline solution; for Amount of compound remaining (%): 0.5 mM
Experimental: (§1) Using high pressure liquid chromatography (HPLC), the stability of each of the tested compounds was determined by following its respective chemical character over time in either phosphate buffered saline (PBS) and/or 0.85% saline solution (sodium chloride). In each case, 0.5 mM of the tested compound in PBS or saline solution was incubated at 25° C. or at 37° C. for 20 hours or, in some cases, up to two days (48 hours).

rat brain MAO-A = rat brain MAO-A (Rattus norvegicus (Rat), UniProt P21396); assay: In vitro inhibition of rat brain MAO-A (14C-5-HT substrate); assay type: biochemical; settings: for IC50: estimated from the data in FIG. 1, rat brain MAO-A, read-out: MAO-A IC50
rat brain MAO-A, sequence (P21396 whole entry): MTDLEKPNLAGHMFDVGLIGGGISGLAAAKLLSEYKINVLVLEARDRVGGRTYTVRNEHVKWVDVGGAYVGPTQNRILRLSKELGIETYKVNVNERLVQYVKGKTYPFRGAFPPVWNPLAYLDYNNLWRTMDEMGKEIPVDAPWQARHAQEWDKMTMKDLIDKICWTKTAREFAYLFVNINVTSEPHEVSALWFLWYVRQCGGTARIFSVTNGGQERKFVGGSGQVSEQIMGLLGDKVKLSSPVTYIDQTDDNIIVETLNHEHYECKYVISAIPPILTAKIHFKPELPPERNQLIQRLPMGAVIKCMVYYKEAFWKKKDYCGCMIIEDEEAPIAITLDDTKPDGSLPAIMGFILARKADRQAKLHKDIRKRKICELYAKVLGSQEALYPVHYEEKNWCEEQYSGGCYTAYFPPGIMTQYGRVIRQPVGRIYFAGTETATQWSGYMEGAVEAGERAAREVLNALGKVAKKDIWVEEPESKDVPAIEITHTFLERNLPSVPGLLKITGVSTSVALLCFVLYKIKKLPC
Experimental: (§2) Rats are decapitated and the brains quickly taken into a weighted ice-cold sucrose buffer (0.32 M) and their weights determined. All subsequent procedures are performed at 0° C. The brains are homogenized in 0.32 M sucrose (one part tissue to 20 parts sucrose) in a Teflon glass homogenizer followed by the addition of sucrose buffer to a final concentration of 10% homogenate. The homogenates are centrifuged at 600 g for 15 min. The supernatant fractions are taken out and centrifuged at 4500 g for 30 min, the pellet diluted in 0.32 M sucrose buffer and kept frozen for later assaying of MAO. Protein concentration is determined with Bradford reagent at λ=595 nm, using BSA as a standard.
(§3) MAO-A and MAO-B activities are determined in rat brain homogenate in vitro following incubation with varying concentrations of the test compounds.
The activity of MAO-A and MAO-B was determined by the adapted method of Tipton & Youdim (Tipton K F, O'Sullivan J, Youdim M B, 1983, Encyclopedia of Neuroscience, 2004, G. Adelman and B. H. Smith, Elsevier). The test compound was added to a suitable dilution of the enzyme preparation (70 μg protein for MAO-B and 150 μg MAO-A assay) in 0.1 M phosphate buffer (pH 7.4). The mixture was incubated together with […], a specific inhibitor of MAO-B (for determination of MAO-A) or 0.05 M clorgylin, a specific inhibitor of MAO-A (for determination of MAO-B). Incubation was carried for 0.5 or 1 h at 37° C. before addition of ^14C-5-hydroxytryptamine binoxalate (5-HT) (100 or 400 μM) for determination of MAO-A, or ^14C-phenylethylamine (^14C-PEA) 100 or 400 μM for determination of MAO-B, and incubation continued for 30 min or 20 min, respectively. The reaction was stopped with 2 M ice-cold citric acid, and the metabolites were extracted and determined by liquid-scintillation counting in cpm units. […]
(§4) MAO-A and MAO-B activity was measured using radioactive substrates. The substrate for MAO-A was 5 HT and for MAO-B was PEA. When measuring the activity of MAO-A, the MAO-B activity was inhibited with deprenyl and when measuring the activity of MAO-B the activity of MAO-A was inhibited with clorgylin. Blank samples were produced using TCP to inhibit both of the enzymes. The metabolites were extracted to toluene and read in a β-counter. The results are expressed in relative activity and normalized to the amount of protein in the tissue.

rat brain MAO-B = rat brain MAO-B (Rattus norvegicus (Rat), UniProt P19643); assay: In vitro inhibition of rat brain MAO-B (14C-PEA substrate); assay type: biochemical; settings: for IC50: estimated from FIG. 2, rat brain MAO-B, read-out: MAO-B IC50
rat brain MAO-B, sequence (P19643 whole entry): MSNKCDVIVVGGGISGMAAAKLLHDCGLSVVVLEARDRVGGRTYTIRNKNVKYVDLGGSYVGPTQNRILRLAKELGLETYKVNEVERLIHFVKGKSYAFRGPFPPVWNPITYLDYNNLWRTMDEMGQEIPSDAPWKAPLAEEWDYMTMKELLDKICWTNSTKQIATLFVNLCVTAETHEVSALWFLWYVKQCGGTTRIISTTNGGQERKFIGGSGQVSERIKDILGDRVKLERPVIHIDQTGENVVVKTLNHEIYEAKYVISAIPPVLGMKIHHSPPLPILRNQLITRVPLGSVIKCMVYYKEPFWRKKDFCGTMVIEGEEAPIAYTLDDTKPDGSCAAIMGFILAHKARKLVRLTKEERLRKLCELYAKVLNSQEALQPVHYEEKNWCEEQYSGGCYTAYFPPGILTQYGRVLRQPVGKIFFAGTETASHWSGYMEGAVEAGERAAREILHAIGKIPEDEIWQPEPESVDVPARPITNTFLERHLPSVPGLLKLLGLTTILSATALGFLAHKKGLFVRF
Experimental: as §2, with “MAO.” for “MAO. Protein concentration is determined with Bradford reagent at λ=595 nm, using BSA as a standard.”
as §3
The in vitro inhibitory activity of the compounds is tested against rat brain MAO-B. The test compounds are added to buffer containing 10^−7 M clorgylin and are incubated with the tissue homogenate for 30 or 60 min at 37° C. before addition of ^14C-PEA.
The test compound was added to a suitable dilution of the enzyme preparation (70 μg protein for MAO-B and 150 μg MAO-A assay) in 0.1 M phosphate buffer (pH 7.4). The mixture was incubated together with […], a specific inhibitor of MAO-B (for determination of MAO-A) or 0.05 M clorgylin, a specific inhibitor of MAO-A (for determination of MAO-B). Incubation was carried for 0.5 or 1 h at 37° C. before addition of ^14C-5-hydroxytryptamine binoxalate (5-HT) (100 or 400 μM) for determination of MAO-A, or ^14C-phenylethylamine (^14C-PEA) 100 or 400 μM for determination of MAO-B, and incubation continued for 30 min or 20 min, respectively. The reaction was stopped with 2 M ice-cold citric acid, and the metabolites were extracted and determined by liquid-scintillation counting in cpm units.
The reaction was stopped with 2 M ice-cold citric acid, and the metabolites were extracted with ethyl acetate and levels of radioactivity were determined by liquid-scintillation counting in CPM units. All assays were performed at least in duplicate and outcome was expressed as a mean±SEM. Data were analyzed by a Student's t test. Variations were considered statistically significant at a p value of 0.05.
as §4

HepG2 cells = assay: Cytotoxicity in presence and absence of exogenous iron, HepG2; assay type: cell-based, human; settings: iron alone, 20 μM
Experimental: (§5) The potential of compound 3 to be toxic in the presence of free iron was also tested. The iron complexation method was based on the method of Leanderson and Tagesson (Carcinogenesis, 17, 545-550, 1996) with some modifications. Iron (III) was prepared from ferric ammonium citrate (Sigma, F5879) at 80 mM in sterile distilled water. Compound 3 was prepared at a 200 mM concentration in DMSO. Before each experiment, the freshly prepared iron (III) solution was diluted to 0.4 mM in PBS II (PBS containing 0.90 mM Ca^2+ and 0.49 mM Mg^2+). Compound 3 stock solutions were diluted to 2, 0.2, and 0.02 mM with PBS II. Equal volumes of the 0.4 mM iron (III) solution and compound 3 solutions were added together to prepare iron/test article complex solutions containing 1, 0.1, and 0.01 mM compound 3 and 0.2 mM iron (III). The compound 3 DMSO stock solution was diluted in PBS II at 1, 0.1, or 0.01 mM and used as compound 3 control without iron. An equal volume of the 0.4 mM iron (III) solution was diluted in PBS II to prepare a control containing only iron.
(§6) The medium was removed from the plated cells (both cell lines) and replaced with fresh medium (90 μL). Iron/compound 3 complex or compound 3 in PBS II without iron was added to cells in triplicate (10 μL) to final compound 3 concentrations of 100, 10, and 1 μM and an iron (III) concentration of 20 μM. Wells containing no cells were used as the background control. PBS II was run as vehicle control. Iron only was run at a final concentration of 20 μM.
(§7) Cell viability was determined as described above and cytotoxicity was compared between treatments with and without iron complexation.

SHSY-5Y cells = assay: Cytotoxicity in presence and absence of exogenous iron, SH-SY5Y; assay type: cell-based, human; settings: iron alone, 20 μM
Experimental: as §5, §6, §7

[2] = Follow-up stability experiment at 37° C. in PBS; assay type: physicochemical
Experimental: as §1
In addition, in a follow-up experiment the instability of M30, and the stability of compounds 3, 7 and 8 was also confirmed at 37° C. in PBS, Table 2, below.

[3] = concentration 0.01 mM, rat brain extracts
[4] = concentration 0.1 mM, rat brain extracts

Compound: C#CCN(C)CCCc1ccc(O)c2ncccc12 [Compound 4, 5-[3-(methyl-2-propyn-1-ylamino)propyl]-8-quinolinol]
Stability in aqueous solution (in words) [1]: highly stable chemically
Amount of compound remaining (%) ([1]; PBS, 25° C., 0.5 hours): 100%
Amount of compound remaining (%) ([1]; PBS, 25° C., 2 hours): 100%
Amount of compound remaining (%) ([1]; PBS, 25° C., 20 hours): 100%
Amount of compound remaining (%) ([1]; PBS, 25° C., 48 hours): 100%
Amount of compound remaining (%) ([1]; saline, 25° C., 0.5 hours): 100%
Amount of compound remaining (%) ([1]; saline, 25° C., 2 hours): 100%
Amount of compound remaining (%) ([1]; saline, 25° C., 20 hours): 100%
Amount of compound remaining (%) ([1]; saline, 25° C., 48 hours): 100%
IC50 (rat brain MAO-A; listed as compound 4): ~200 nM
IC50 (rat brain MAO-A): 200 nM
Inhibition of rat brain MAO-A in vitro (in words) (rat brain MAO-A): potent inhibitors
IC50 (rat brain MAO-B): 100 nM
Inhibition of rat brain MAO-B in vitro (in words) (rat brain MAO-B): potent inhibitors

Compound: C#CCN(C)C(C)c1ccc(O)c2ncccc12 (stereo not shown) [5-(1-(methyl(prop-2-ynyl) amino)ethyl)quinolin-8-ol]
Stability in aqueous solution (in words) [1]: **Decomposition of 5-(1-(methyl(prop-2-ynyl) amino)ethyl)quinolin-8-ol occurred immediately upon dissolution in PBS aspredicted by the working hypothesis

Compound: [Fe+3] [Iron]
HepG2 cell death (%) (HepG2 cells): 1.6%
SHSY-5Y cell death (%) (SHSY-5Y cells): −1.0%

Compound: C#CCN(C)C(C)c1ccc(O)c2ncccc12 (stereo not shown) [5-(1-(methyl(prop-2-ynyl)amino)ethyl)quinolin-8-ol] [5-[1-(methyl-2-propyn-1-ylamino)ethyl]-8-quinolinol]
Stability in aqueous solution (in words) [1]: decomposed immediately
Amount of compound remaining (%) ([1]; PBS, 25° C., 0.5 hours): 0.0** %

More lines, main results first:

Amount of compound remaining (%) ([1]; PBS, 25° C., 0.5 hours): 100%
Amount of compound remaining (%) ([1]; PBS, 25° C., 2 hours): 100%
Amount of compound remaining (%) ([1]; PBS, 25° C., 20 hours): 100%
Amount of compound remaining (%) ([1]; PBS, 25° C., 48 hours): 100%
Amount of compound remaining (%) ([1]; saline, 37° C., 0.5 hours): 100%
Amount of compound remaining (%) ([1]; saline, 37° C., 2 hours): 100%
Amount of compound remaining (%) ([1]; saline, 37° C., 20 hours): 100%
Amount of compound remaining (%) ([1]; saline, 37° C., 48 hours): 100%
Compound: C#CCN(C)CCc1ccc(OC)c2ncccc12 [[O-Methyl-Compound 3], 8-methoxy-N-methyl-N-2-propyn-1-yl-5-quinolineethanamine]
Stability in aqueous solution (in words) [1]: highly stable chemically; also recorded: stable in PBS at 37 °C for at least two days

inhibition at 10 µM (rat brain MAO-A; [3]): 98.5%
inhibition at 100 µM (rat brain MAO-A; [4]): 99.7%
IC50 (rat brain MAO-A): 250 to 300 nM
Inhibition of rat brain MAO-A in vitro (in words) (rat brain MAO-A): potent inhibitors
inhibition at 10 µM (rat brain MAO-B; [3]): 87.8%
inhibition at 100 µM (rat brain MAO-B; [4]): 97.3%
IC50 (rat brain MAO-B): 20 to 40 nM
Inhibition of rat brain MAO-B in vitro (in words) (rat brain MAO-B): potent inhibitors
Compound: C#CCN(C)Cc1ccc(OC)c2ncccc12 [O-Methyl-M30]
Inhibition of rat brain MAO-A in vitro (in words) (rat brain MAO-A; listed as O-methyl M30): inhibits both brain MAO-A and MAO-B at apparently similar levels
Inhibition of rat brain MAO-B in vitro (in words) (rat brain MAO-B; listed as O-methyl M30): inhibits both brain MAO-A and MAO-B at apparently similar levels

Amount of compound remaining (%) ([2]; 3 hours): 99.7%
Amount of compound remaining (%) ([2]; 8 hours): 97.7%
Amount of compound remaining (%) ([2]; 24 hours): 94.1%
Amount of compound remaining (%) ([2]; 48 hours): 100%
Compound: C#CCN(C)CCc1cc(C2CC2)c(O)c2ncccc12 [Compound 7, 7-cyclopropyl-5-[2-(methyl-2-propyn-1-ylamino)ethyl]-8-quinolinol]

Amount of compound remaining (%) ([2]; 3 hours): ≧100%
Amount of compound remaining (%) ([2]; 8 hours): 96.7%
Amount of compound remaining (%) ([2]; 24 hours): ≧100%
Amount of compound remaining (%) ([2]; 48 hours): ≧100%
Compound: C#CCN(C)CCc1cc(F)c(O)c2ncccc12 [Compound 8, 7-fluoro-5-[2-(methyl-2-propyn-1-ylamino)ethyl]-8-quinolinol]
